According to patent US12568969B2, “Pyridine compounds for controlling invertebrate pests” (FMC Corporation, priority 2020, dated 2026):

Assays:
Assay type in all cases: in vivo
[1] = test system: potato leafhopper (Empoasca fabae (Harris)); experiment: Test C: control of potato leafhopper on Soleil bean plant, spray; settings: Empoasca fabae, 144 h; sprayed at 250 ppm; 6 days
Protocol: (§1) Test compounds were formulated using a solution containing 10% acetone, […] and 300 ppm Activator 909 non-ionic surfactant (Loveland Products, Loveland, Colorado, USA). The formulated compounds were applied in 1 mL of liquid through an atomizer nozzle positioned 1.27 cm (0.5 inches) above the top of each test unit. Test compounds were sprayed at the rates indicated, and each test was replicated three times.
For evaluating control of potato leafhopper (Empoasca fabae (Harris)) through contact and/or systemic means, the test unit consisted of a small open container with a 5-6-day-old Soleil bean plant (primary leaves emerged) inside. White sand was added to the top of the soil, and one of the primary leaves was excised prior to application of the test compound.
[…] After spraying of the formulated test compound, the test units were allowed to dry for 1 hour before they were post-infested with 5 potato leafhoppers (18-to-21-day-old adults). A black, screened cap was placed on the top of the test unit, and the test units were held for 6 days in a growth chamber at 20° C. and 70% relative humidity. Each test unit was then visually assessed for insect mortality.

[2] = test system: cotton melon aphid (Aphis gossypii (Glover)); experiment: whole plant or invertebrate; settings: Aphis gossypii, 144 h, 6 days; for mortality at 50 ppm: sprayed at 50 ppm; for mortality at 250 ppm: sprayed at 250 ppm
In short: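 Compounds were formulated in a solution of 10% acetone, […] and 300 ppm Activator 909 non-ionic surfactant and sprayed as 1 mL through an atomizer nozzle 1.27 cm (0.5 inches) above each test unit, with three replicates. Units were pre-infested with 30-40 aphids on leaf pieces via the cut-leaf method, soil covered with sand, then kept 6 days at 19° C. and 70% relative humidity before visual mortality scoring.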

[3] = test system: corn planthopper (Peregrinus maidis (Ashmead)); experiment: whole plant or invertebrate; settings: Peregrinus maidis, 144 h, 6 days; for mortality at 10 ppm: sprayed at 10 ppm; for mortality at 50 ppm: sprayed at 50 ppm; for mortality at 250 ppm: sprayed at 250 ppm
In short: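 Corn plants 3-4 days old were sprayed at 250, 50 and/or 10 ppm in 10% acetone with 300 ppm non-ionic surfactant, three replicates, contact and/or systemic exposure. After 1 h drying, ~15-20 nymphs (18-to-21-day-old) were added; mortality assessed visually after 6 days at 22-24° C, 50-70% RH.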

[4] = test system: diamondback moth (Plutella xylostella (L.)); experiment: Test A: control of diamondback moth on mustard plant, spray; settings: sprayed at 250 ppm; assessed after 6 days
Protocol: as §1
For evaluating control of diamondback moth (Plutella xylostella (L.)) the test unit consisted of a small open container with a 12-14-day-old mustard plant inside. This was pre-infested with ˜50 neonate larvae that were dispensed into the test unit via corn cob grits using an inoculator. The larvae moved onto the test plant after being dispensed into the test unit.
Test compounds were formulated and sprayed at 250 ppm. After spraying of the formulated test compound, each test unit was allowed to dry for 1 hour and then a black, screened cap was placed on top. The test units were held for 6 days in a growth chamber at 25° C. and 70% relative humidity. Plant feeding damage was then visually assessed based on foliage consumed, and larvae were assessed for mortality.

[5] = test system: Western Flower Thrips (Frankliniellla occidentalis (Pergande)); experiment: Test G: control of Western Flower Thrips on Soleil bean plant, spray; settings: sprayed at 250 ppm; 6 days
Protocol: as §1
For evaluating control of the Western Flower Thrips (Frankliniellla occidentalis (Pergande)) through contact and/or systemic means, the test unit consisted of a small open container with a 5-7-day-old Soleil bean plant inside.
Test compounds were formulated and sprayed at 250 ppm. After spraying, the test units were allowed to dry for 1 hour, and then about 60 thrips (adults and nymphs) were added to each unit. A black, screened cap was placed on top, and the test units were held for 6 days at 25° C. and 45-55% relative humidity. Each test unit was then visually assessed for plant damage and insect mortality.

[6] = test system: green peach aphid (Myzus persicae (Sulzer)); experiment: Test D: control of green peach aphid on radish plant, spray; settings: Myzus persicae, 144 h, 6 days; for mortality at 250 ppm: sprayed at 250 ppm
In short: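 Radish plants (12-15 days old) pre-infested with 30-40 aphids, sprayed with compound in 10% acetone/water with 300 ppm non-ionic surfactant at 250 and/or 50 ppm, three replicates. Held 6 days at 19-21 °C, 50-70% relative humidity, then mortality scored visually.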

[7] = test system: sweetpotato whitefly (Bemisia tabaci (Gennadius)); experiment: Test F: control of sweetpotato whitefly on cotton plant, spray; settings: 312 h, 13 days; for mortality at 250 ppm: sprayed at 250 ppm
Protocol: as §1
For evaluating control of the sweetpotato whitefly (Bemisia tabaci (Gennadius)) through contact and/or systemic means, the test unit consisted of a small open container with a 12-14-day-old cotton plant inside. Prior to the spray application, both cotyledons were removed from the plant, leaving one true leaf for the assay. Adult whiteflies were allowed to lay eggs on the plant and then were removed from the test unit. Cotton plants infested with at least 15 eggs were submitted to the test for spraying.
Test compounds were formulated and sprayed at 250 and/or 50 ppm. After spraying, the test units were allowed to dry for 1 hour. The cylinders were then removed, and the units were taken to a growth chamber and held for 13 days at 28° C. and 50-70% relative humidity. Each test unit was then visually assessed for insect mortality.

SMILES | mortality at 250 ppm [1] [%] | mortality at 50 ppm [2] [%] | mortality at 250 ppm [2] [%] | mortality at 10 ppm [3] [%] | mortality at 50 ppm [3] [%] | mortality at 250 ppm [3] [%] | control efficacy (40% or less feeding damage and/or 100% mortality) [4] | control efficacy (30% or less plant damage and/or 100% mortality) [5] | mortality at 250 ppm [6] [%] | mortality at 250 ppm [7] [%] | mortality at 50 ppm ([6]; sprayed at 50 ppm) [%] | mortality at 50 ppm ([7]; sprayed at 50 ppm) [%]
Fc1cncc(-c2ncco2)c1C(F)c1ccc(OC(F)(F)F)cc1 (centres unmarked) [Compound 32] | ≥ 80 | ≥ 80 | ≥ 80 | ≥ 80 | ≥ 80 | ≥ 80 | very good to excellent levels of control efficacy | very good to excellent levels of control efficacy | – | – | – | –
Fc1cncc(-c2nccs2)c1C(F)c1ccc(OC(F)(F)F)cc1 (centres unmarked) [Compound 33] | ≥ 80 | ≥ 80 | ≥ 80 | ≥ 80 | ≥ 80 | ≥ 80 | very good to excellent levels of control efficacy | very good to excellent levels of control efficacy | – | – | – | –
Fc1cncc(-c2nccs2)c1C(F)c1ccc(OC(F)(F)F)cc1 (centres unmarked) [Compound 36] | – | – | – | – | – | – | very good to excellent levels of control efficacy | very good to excellent levels of control efficacy | ≥ 80 | ≥ 70 | – | –
COC(c1ccc(OC(F)(F)F)cc1)c1c(F)cncc1-n1cccn1 (centres unmarked) [Compound 37] | ≥ 80 | ≥ 80 | ≥ 80 | – | ≥ 80 | ≥ 80 | – | – | ≥ 80 | ≥ 70 | – | –
Fc1cncc(-c2ccno2)c1C(F)c1ccc(OC(F)(F)F)cc1 (centres unmarked) [Compound 41] | – | – | ≥ 80 | ≥ 80 | ≥ 80 | – | – | very good to excellent levels of control efficacy | – | – | – | –
FC(c1ccc(OC(F)(F)F)cc1)c1c(Cl)cncc1-c1nccs1 (centres unmarked) [Compound 50] | – | ≥ 80 | ≥ 80 | ≥ 80 | ≥ 80 | – | very good to excellent levels of control efficacy | very good to excellent levels of control efficacy | – | – | – | –
FC(c1ccc(SC(F)(F)F)cc1)c1ccncc1-n1nccn1 (centres unmarked) [Compound 69] | ≥ 80 | ≥ 80 | ≥ 80 | ≥ 80 | ≥ 80 | ≥ 80 | – | – | ≥ 80 | ≥ 70 | ≥ 80 | ≥ 70
